Measurements reported in patent US8975279B2, “Amine salts of laquinimod” (Teva Pharmaceutical Industries, Ltd., priority 2012, dated 2015).
In brackets after ≈: the same amount, converted by molar mass. Several values for one entry are separate records, joined by “and”; a condition that tells them apart may be missing. Equal entries are not always repeated. Entries after “also recorded” stand apart in the source; their conditions may differ. Structures can show the parent of a compound that is named as a salt. Where two headings read alike, the source gives them in different places. Marks after values point to notes of the source that are not given here. Each block holds one compound with its values, some of them ahead of it.

Tests used:
[1] = cited from earlier work
[2] = Physical stability in glass vials at +5° C., air atmosphere; format: physicochemical; conditions: for Sample appearance: glass vials, air atmosphere
[3] = Aqueous solubility of laquinimod and its salts; format: physicochemical; conditions: for Aqueous solubility: water
[4] = Physical stability on exposure to atmospheric air at room temperature; format: physicochemical
[5] = cited from earlier work; for intrinsic solubility: free laquinimod in water
[6] = cited from earlier work; remark: listed apart in the source
[7] = +5° C., after 9 months of storage
[8] = sealed transparent glass vials at +5° C. for 6 months
[9] = sealed transparent glass vials at +5° C. for 3 months
[10] = +5° C., after 7 months of storage
[11] = RH=25-30%, T=18-20° C., 4 hours
[12] = +5° C., after 10 months of storage

Compound: C[N+](C)(C)CCO.O=C([O-])c1ccccc1O [choline salicylate salt, choline salicylate]
solubility (in words) [1]: insoluble

Compound: CN1C(C(=O)Nc2ccccn2)=C(O)c2ccccc2S1(=O)=O.NCCO [monoethanolamine salt of piroxicam]
solubility ([1]; pH 7.4): 126.2 mg/mL

Compound: CCN(C(=O)c1c(O)c2c(Cl)cccc2n(C)c1=O)c1ccccc1 [Batch 7, laquinimod choline hydroxide]
Physical stability (physical change) [2, 7]: no sign of physical change
Sample appearance ([2]; +5° C., 5 months): White powder
Sample appearance ([2]; +5° C., 6 months): white powder with no signs of deliquescence
Sample appearance ([2]; +5° C., 9 months): White powder
Sample appearance ([2]; +5° C., time 0 month): White powder
Physical stability (physical change) [2, 8]: No physical change was observed
Aqueous solubility [3]: > 2100 mg/ml H2O
Aqueous solubility ([3]; depends on preparation method and form, listed as 2.3): >2100** mg/ml

Compound: CCN(C(=O)c1c(O)c2c(Cl)cccc2n(C)c1=O)c1ccccc1 [Batch 15, laquinimod monoethanolamine]
Sample appearance ([2]; +5° C., 3 months): off-white powder
Sample appearance ([2]; +5° C., time 0 month): White powder
Physical stability (physical change) [2, 9]: Small physical change was observed; also recorded: color change was developed
Physical stability ([4]; RH=29-32%, T=18-20° C., 4 hrs): no change; remained white powder
Physical stability ([4]; RH=29-32%, T=18-20° C., 25 hrs): no change; remained white powder
Aqueous solubility [3]: 625 mg/ml H2O
Aqueous solubility ([3]; depends on preparation method and form, listed as 4.4): 625 mg/mL

Compound: CCN(C(=O)c1c(O)c2c(Cl)cccc2n(C)c1=O)c1ccccc1 [laquinimod meglumine]
Aqueous solubility ([3]; depends on preparation method and form, listed as meglumine laquinimod salt): 1050 mg/mL and 1330 mg/mL

Compound: Cc1cnc(NC(=O)C2=C(O)c3ccccc3S(=O)(=O)N2C)s1 [free meloxicam, meloxicam]
solubility ([1]; pH 7.4): 0.74 mg/mL (≈ 2110 µM)

Compound: CNC[C@H](O)[C@@H](O)[C@H](O)[C@H](O)CO.Cc1cnc(NC(=O)C2=C(O)c3ccccc3S(=O)(=O)N2C)s1 [meglumine salt of meloxicam]
Aqueous solubility ([1]; pH 8.57): 2.3 mg/mL

Compound: CCN(C(=O)c1c(O)c2c(Cl)cccc2n(C)c1=O)c1ccccc1 [laquinimod monoethanolamine]
Aqueous solubility ([3]; depends on preparation method and form, listed as Laquinimod monoethanoloamine salt): 625 mg/mL and 1176 mg/mL

Compound: CN1C(C(=O)Nc2ccccn2)=C(O)c2ccccc2S1(=O)=O [free piroxicam, piroxicam]
solubility ([1]; pH 7.4, unit not given): 0.17

Compound: CCN(C(=O)c1c(O)c2c(Cl)cccc2n(C)c1=O)c1ccccc1 [Batch 9, laquinimod L-lysine]
Physical stability (physical change) [2, 7]: no sign of physical change
Sample appearance ([2]; +5° C., 5 months): White flowable powder
Sample appearance ([2]; +5° C., 6 months): white flowable powder
Sample appearance ([2]; +5° C., 9 months): White flowable powder
Sample appearance ([2]; +5° C., time 0 month): White flowable powder
Physical stability (physical change) [2, 8]: No physical change was observed
Aqueous solubility [3]: 1176 mg/ml H2O
Aqueous solubility ([3]; depends on preparation method and form, listed as 3.1): 1176 mg/mL

Compound: CCN(C(=O)c1c(O)c2c(Cl)cccc2n(C)c1=O)c1ccccc1 [laquinimod, N-ethyl-N-phenyl-1,2-dihydro-4-hydroxy-5-chloro-1-methyl-2-oxoquinoline-3-carboxamide]
intrinsic solubility [5]: 0.007 mg/mL
intrinsic solubility ([5]; listed as Free laquinimod): about 0.007 mg/ml
pKa [6]: 4.2

Compound: NCCO.Oc1cc(Cl)ccc1Oc1ccc(Cl)cc1Cl [Monoethanolamine salt of triclosan]
solubility ([1]; pH not given): 5.84 mg/mL

Compound: CC(C)Cc1ccc(C(C)C(=O)[O-])cc1.[Na+] (stereo not shown) [ibuprofen sodium salt]
solubility ([1]; pH not given): 100 mg/mL

Compound: CCN(C(=O)c1c(O)c2c(Cl)cccc2n(C)c1=O)c1ccccc1 [Batch 14, laquinimod monoethanolamine]
Physical stability (physical change) [2, 10]: no sign of physical change
Sample appearance ([2]; +5° C., 3 months): white powder
Physical stability (physical change) [2, 9]: No physical change was observed
Physical stability [4, 11]: no change
Physical stability ([4]; RH=25-30%, T=18-20° C., 16 hours): aggregated white powder

Compound: CCN(C(=O)c1c(O)c2c(Cl)cccc2n(C)c1=O)c1ccccc1 [Batch 6, laquinimod choline hydroxide]
Physical stability (physical change) ([2]; +5° C., after 5 months): developed color and deliquescence occurred
Sample appearance ([2]; +5° C., 6 months): yellowish semi-solid with signs of deliquescence
Sample appearance ([2]; +5° C., time 0 month): White glassy solid
Physical stability (physical change) [2, 8]: Physical change was observed

Compound: CNCC(O)C(O)C(O)C(O)CO.Oc1cc(Cl)ccc1Oc1ccc(Cl)cc1Cl [Triclosan meglumine salt]
solubility ([1]; pH not given): 12.43 mg/mL

Compound: Cc1cnc(NC(=O)C2=C(O)c3ccccc3S(=O)(=O)N2C)s1 [meloxicam sodium salt]
Aqueous solubility ([1]; pH 8.06): 2.0 mg/mL

Compound: C[N+](C)(C)CCO.[OH-] [Choline hydroxide]
pKa [6]: 13.9

Continued, in another order:

Sample appearance ([2]; +5° C., 3 months): yellowish aggregated powder
Physical stability (overall) ([2]; refrigerator, atmospheric air, overall statement): less stable
Physical stability (physical change) [2, 9]: Physical change was observed
Physical stability [4, 11]: no change
Physical stability ([4]; RH=25-30%, T=18-20° C., 24 hours): yellowish aggregated powder
Compound: CCN(C(=O)c1c(O)c2c(Cl)cccc2n(C)c1=O)c1ccccc1 [Batch 12, laquinimod monoethanolamine]

Physical stability (physical change) [2, 12]: no sign of physical change
Sample appearance ([2]; +5° C., 6 months): White flowable powder
Sample appearance ([2]; +5° C., last row of Table 7.A, time printed 0 month): White flowable powder
Sample appearance ([2]; +5° C., time 0 month): White flowable powder
Physical stability (physical change) [2, 8]: No physical change was observed
Aqueous solubility [3]: 1330 mg/ml H2O
Aqueous solubility ([3]; depends on preparation method and form, listed as 1.1): 1330 mg/mL
Compound: CCN(C(=O)c1c(O)c2c(Cl)cccc2n(C)c1=O)c1ccccc1 [Batch 1, laquinimod meglumine]
Physical stability ([4]; RH=38%, open dish, 20 hours): No signs of aggregation or deliquescence were observed

Physical stability (physical change) ([2]; +5° C., after 5 months): physical change was observed
Physical stability (physical change) [2, 8]: Physical change was observed
Compound: CCN(C(=O)c1c(O)c2c(Cl)cccc2n(C)c1=O)c1ccccc1 [Batch 3, laquinimod meglumine]
Sample appearance ([2]; +5° C., 6 months): lumped white powder, with signs of deliquescence

solubility in water according to the USP ([3]; USP descriptive term): freely soluble to soluble
Compound: CCN(C(=O)c1c(O)c2c(Cl)cccc2n(C)c1=O)c1ccccc1 [laquinimod sodium, reference compound]
Aqueous solubility ([5]; existing sodium salt, U.S. Pat. No. 7,589,208): 138 mg/mL

Physical stability (physical change) [2, 12]: no sign of physical change
Physical stability (physical change) [2, 8]: No physical change was observed
Aqueous solubility [3]: 1050 mg/ml H2O
Aqueous solubility ([3]; depends on preparation method and form, listed as 1.4): 1050 mg/mL
Compound: CCN(C(=O)c1c(O)c2c(Cl)cccc2n(C)c1=O)c1ccccc1 [Batch 4, laquinimod meglumine]
Sample appearance ([2]; +5° C., 6 months): white powder with no signs of deliquescence

Aqueous solubility ([3]; depends on preparation method and form, listed as L-lysine laquinimod salt): 1000 mg/mL and 1176 mg/mL
Compound: CCN(C(=O)c1c(O)c2c(Cl)cccc2n(C)c1=O)c1ccccc1 [laquinimod L-lysine]

solubility relative to the sodium salt ([3]; laquinimod choline hydroxide salt vs laquinimod sodium): over 14 times
Aqueous solubility ([3]; depends on preparation method and form, listed as choline hydroxide salt of laquinimod): 2000 mg/mL and 2100 mg/mL
Compound: CCN(C(=O)c1c(O)c2c(Cl)cccc2n(C)c1=O)c1ccccc1 [laquinimod choline hydroxide]

Physical stability (physical change) [2, 10]: slight aggregation was developed
Sample appearance ([2]; +5° C., 3 months): off-white powder
Sample appearance ([2]; +5° C., time 0 month): White powder
Aqueous solubility [3]: 1176 mg/ml H2O
Aqueous solubility ([3]; depends on preparation method and form, listed as 4.2): 1176 mg/mL
Compound: CCN(C(=O)c1c(O)c2c(Cl)cccc2n(C)c1=O)c1ccccc1 [Batch 13, laquinimod monoethanolamine]

Physical stability (physical change) [2, 7]: no sign of physical change
Sample appearance ([2]; +5° C., 5 months): White flowable powder
Sample appearance ([2]; +5° C., 6 months): white powder
Sample appearance ([2]; +5° C., 9 months): White flowable powder
Sample appearance ([2]; +5° C., time 0 month): White flowable powder
Physical stability (physical change) [2, 8]: No physical change was observed
Aqueous solubility [3]: 1000 mg/ml H2O
Aqueous solubility ([3]; depends on preparation method and form, listed as 3.2): 1000 mg/mL
Compound: CCN(C(=O)c1c(O)c2c(Cl)cccc2n(C)c1=O)c1ccccc1 [Batch 10, laquinimod L-lysine]

Physical stability (physical change) [2, 7]: no sign of physical change
Sample appearance ([2]; +5° C., 5 months): White powder
Sample appearance ([2]; +5° C., 9 months): White powder
Sample appearance ([2]; +5° C., time 0 month): White powder
Physical stability (physical change) [2, 8]: No physical change was observed
Aqueous solubility [3]: 2000 mg/ml H2O
Aqueous solubility ([3]; depends on preparation method and form, listed as 2.4): >2000** mg/ml
Compound: CCN(C(=O)c1c(O)c2c(Cl)cccc2n(C)c1=O)c1ccccc1 [Batch 8, laquinimod choline hydroxide]
Sample appearance ([2]; +5° C., 6 months): white powder with no signs of deliquescence
